From patent publication US10328018B2, “Cosmetic use of the essential oil of Laserpitium siler L. against the signs of aging of the skin and as a skin antioxidant” (L'OREAL, priority 2012, dated 2019)
Marks after values point to notes of the source that are not given here.

What was measured:
Collagen IV = test: Production of collagen IV by normal human keratinocytes (in situ immunolabeling, image analysis); assay type: cell-based; details: TGF-β at 10 ng/ml, NHEK, 72 hours
Procedure: The purpose of this study was to evaluate the effects of the essential oil of Laserpitium Siler L. according to example 1 on the dermo-epidermal junction marker (Coll. IV) modulated during aging by immunohistochemistry techniques.
• Culture medium: Keratinocyte-SFM supplemented with: • Epidermal Growth Factor (EGF) 0.25 ng/ml • Pituitary extract (PE) 25 μg/ml • Gentamicin 25 μg/ml • Test medium: Keratinocyte-SFM supplemented with: • Gentamicin 25 μg/ml
Normal human keratinocytes (NHEK—Ref: K341) were seeded and cultured in a culture medium (Keratinocyte-SFM for 24 hours). The culture medium was replaced by the test medium containing, or not containing (control), the test compounds or reference compounds (TGF-β at 10 ng/ml), then the cells were incubated for 72 hours at 37° C., 5% CO2.
After incubation, the culture medium was removed and the cells were rinsed, fixed and permeabilized.
The cells were then labeled with the primary antibody targeted against the protein of interest (Collagen IV).
The relative quantification was carried out by image analysis after in situ immuno labeling.
The image acquisition was carried out with a high-resolution imaging system: INCell Analyser™ 1000.

MMP-1 = test: Abundance of MMP-1 secreted in culture medium of NHDF dermal fibroblasts (pro-MMP-1 ELISA); assay type: cell-based, human; details: 2.5 ng/ml, 72 h, control without treatment=100%
Procedure: The study consists in evaluating, on NHDF (Normal Human Dermal Fibroblasts) dermal fibroblasts, the effects of the essential oil of Laserpitium Siler L. of example 1, at two concentrations, over the following parameters: • the synthesis of type I procollagen by ELISA (CICP, Cross-linked C-telopeptides of Type I collagen) after 72 h of contact, and • the abundance of MMP-1 secreted in the culture medium after 72 h of contact.
The study was carried out on NHDF human dermal fibroblasts (ATCC, CRL-2522, origin: foreskin) cultured in monolayer in a medium of DMEM (Invitrogen, 31885-049) and antibiotics (penicillin/streptomycin, Invitrogen, 15140-122), and cultured in serum-free medium for studies on type I collagen and on MMP-1.
The fibroblasts were seeded in 24-well plates, 24 h before the treatment with the test and reference elements.
For the measurement of the synthesis/secretion of type I procollagen and for the quantification of MMP-1, the test elements and also the reference elements (TGF-β1 (Transforming Growth Factor-β1) for MMP-1 and vitamin C for CICP) were applied for 72 h in the absence of serum. […]
The quantification of MMP-1 was carried out with a specific kit (Human pro-MMP-1 Quantikine ELISA, R&D System), according to the instructions given by the supplier.

type I procollagen = test: Synthesis/secretion of type I procollagen by ELISA (CICP) on NHDF dermal fibroblasts; assay type: cell-based, human; details: 100 μM, 72 h, control without treatment=100%
Procedure: The study consists in evaluating, on NHDF (Normal Human Dermal Fibroblasts) dermal fibroblasts, the effects of the essential oil of […]. of example 1, at two concentrations, over the following parameters: • the synthesis of type I procollagen by ELISA (CICP, Cross-linked C-telopeptides of Type I collagen) after 72 h of contact, and • the abundance of MMP-1 secreted in the culture medium after 72 h of contact. The study was carried out on NHDF human dermal fibroblasts (ATCC, CRL-2522, origin: foreskin) cultured in monolayer in a medium of DMEM (Invitrogen, 31885-049) and antibiotics (penicillin/streptomycin, Invitrogen, 15140-122), and cultured in serum-free medium for studies on type I collagen and on MMP-1. The fibroblasts were seeded in 24-well plates, 24 h before the treatment with the test and reference elements. For the measurement of the synthesis/secretion of type I procollagen and for the quantification of MMP-1, the test elements and also the reference elements (TGF-β1 (Transforming Growth Factor-β1) for MMP-1 and vitamin C for CICP) were applied for 72 h in the absence of serum. The supernatants of the cultures were harvested after 72 h of treatment with the active agents and the reference element (in this case, vitamin C at 1000 μM). These were frozen at -20° C. until the day of the analysis. […]

**Q.** For “TGF-β: positive control / reference compound at 10 ng/ml in the collagen IV test”, which “increase in expression of collagen IV compared to the control” value (Collagen IV) is on record?
**A.** 594%

**Q.** “TGF-β1: Transforming Growth Factor-β1, reference element for MMP-1” was tested. Which “MMP-1 (protein abundance)” value (MMP-1) did it give?
**A.** 47%***

**Q.** How did the “CICP (protein abundance)” value (type I procollagen) turn out when `O=C1O[C@H]([C@@H](O)CO)C(O)=C1O` [Vitamin C] was run?
**A.** 160%***
